From article PMC7822874, “Chemoprotective antimalarials identified through quantitative high-throughput screening of Plasmodium blood and liver stage parasites” (Scientific Reports, 2021)
Read-outs that look alike come from different tables or passages of the source.

Test system: Plasmodium falciparum Dd2 asexual blood stage parasites
Test: microbe, parasite or virus in culture
Set-up: species or system Plasmodium falciparum Dd2 in human erythrocytes; single determination (one 11-point concentration-response curve)
Settings: Plasmodium falciparum, DD2, Erythrocyte, 72 h

Structure (SMILES)	AC50 (read-out: AC50) [µM]	AC50 [µM]
O=C(CN1CCC(n2nnc3cc(F)ccc32)CC1)Nc1ccccc1N1CCOCC1 [MLS000030185-01]	5.31	–
CCc1c(C)[nH]c2ccccc2c1=O [MLS000030676-01]	10.6	–
CC(=O)Nc1cc(-c2ccccc2)ccc1O [MLS000030849-01]	4.73	–
Oc1ccc(CN2CCCCC2)nc1-c1ccccc1 [MLS000031925-01]	0.531	–
O=C(Nc1cnc2ccccc2c1)c1cccc(-n2cnnn2)c1 [MLS000032104-01]	2.66	–
CCn1c(SCc2ccc(C#N)cc2)nnc1-c1ccc(S(=O)(=O)N2CCCCC2)cc1 [MLS000032588-01]	6.68	–
Cc1cc(Nc2ccc(C)c(F)c2)n2ncnc2n1 [MLS000033310-01]	9.44	–
Cc1ccc(NC(=O)N(Cc2ccc3c(c2)OCO3)Cc2cc3cc4c(cc3[nH]c2=O)OCCO4)cc1 [MLS000033889-01]	6.68	–
C1CCC(CNc2c3c(nc4nnnn24)CCCC3)CC1 [MLS000034780-01]	13.3	–
CSc1nnc(-c2cc3ccccc3cc2O)n1C [MLS000035069-01]	7.5	–
CCn1nnc(NC(=O)c2ccc(C(C)(C)C)cc2)n1 [MLS000035112-01]	9.44	–
COc1cc(OC)cc(-c2cc3nc4c(c(N5CCN(c6ncccn6)CC5)n3n2)CCCC4)c1 [MLS000035210-01]	4.22	–
CCOC(=O)c1c(CN(C)C)oc2cc(CN(C)C)c(O)c(CSc3ccccc3)c12 [MLS000038262-01]	0.596	–
COc1ccc(CC(=O)NCc2ccccn2)cc1OC [MLS000039135-01]	7.5	–
CC1(c2ccccn2)Nc2ccccc2-c2nc3ccccc3n21 (stereo not shown) [MLS000039430-01]	5.31	–
COc1ccc(CCn2c(=N)c(C(=O)NCc3ccco3)cc3c(=O)n4cccc(C)c4nc32)cc1 [MLS000040240-01]	1.68	–
CCOC(=O)c1nnn(-c2nonc2N)c1-c1ccc(OC)cc1 [MLS000043574-01]	5.31	–
CC(C)(C)Nc1nc(NC(C)(C)C)nc(-n2ccnc2)n1 [MLS000044025-01]	4.73	–
CCOC(=O)c1ccc(Nc2nc(=O)c(C(C)(C)C)n[nH]2)cc1 [MLS000044326-01]	13.3	–
CCOC(=O)C1CCN(c2cc(=O)n(-c3ccccc3Cl)c(=O)[nH]2)CC1 [MLS000045867-01]	8.41	–
O=C(NCc1ccco1)c1cc(-c2ccncc2)nc2ccccc12 [MLS000046192-01]	5.96	–
CCC(=O)N1CCc2cc(Br)cc(S(=O)(=O)C3(C(=O)OC)CC3)c21 [MLS000047144-01]	3.76	–

Structure (SMILES)	AC50 (read-out: AC50) [µM]	AC50 [µM]
COc1ccccc1NC(=O)CN1CCN(C2c3ccccc3-c3ccccc32)CC1 [MLS000047428-01]	15	–
O=C(CN1CCN(C(=O)c2ccco2)CC1)Nc1cc(C(F)(F)F)ccc1Cl [MLS000047443-01]	7.5	–
COc1cc(C2NCc3ccccc3-n3cccc32)ccc1O (stereo not shown) [MLS000047988-01]	2.66	–
Cc1ccc(Nc2cc(C)nn2-c2nc(C)cc(C)n2)cc1 [MLS000048464-01]	6.68	–
Clc1ccc2c(N3CCCC3)ccnc2c1 [MLS000049600-01]	3.76	–
O=C1Nc2ccccc2C12Nc1ccccc1-c1nc3ccccc3n12 (stereo not shown) [MLS000051512-01]	6.68	–
c1ccc(Cn2c(Sc3nnnn3-c3ccccc3)nnc2-c2ccccc2)cc1 [MLS000052243-01]	7.5	–
Cc1cc(C(=O)CN2C(=O)NC(C)(c3cccc(Br)c3)C2=O)c(C)n1Cc1ccco1 (stereo not shown) [MLS000055137-01]	13.3	–
Cc1cc(C(=O)CN2C(=O)NC(c3ccccc3)(c3ccccc3)C2=O)c(C)n1Cc1ccco1 [MLS000056256-01]	8.41	–
Oc1cc2c(cc1CN1CCN(c3ccccc3)CC1)CCC2 [MLS000058156-01]	–	3.35
CCN(CC)c1ccc2oc(=O)c(C)nc2c1 [MLS000062529-01]	6.68	–
CC1Cn2c(nnc2-c2cc3ccccc3cc2O)S1 (stereo not shown) [MLS000066435-01]	4.73	–
CCCc1c(C)[nH]c2ccccc2c1=O [MLS000067721-01]	7.5	–
Cc1cccc2cc(CN(Cc3ccco3)C(c3nnnn3CCc3ccccc3)C(C)C)c(O)nc12 (stereo not shown) [MLS000072528-01]	10.6	–
O=C(Nc1ccc(N2CCOCC2)c(Cl)c1)c1nc[nH]n1 [MLS000072688-01]	9.44	–
CC(C)(C)n1nnnc1C(c1cc2cc3c(cc2[nH]c1=O)OCO3)N1CCN(c2ccccc2)CC1 (stereo not shown) [MLS000072810-01]	7.5	–
CCC(C)(C)n1nnnc1C(c1cc2cccc(C)c2nc1O)N1CCN(C(=O)c2ccco2)CC1 (stereo not shown) [MLS000073230-01]	6.68	–
Cc1ccc(C(=O)c2cc(C)sc2NC(=O)CN2CCN(C(=O)c3ccco3)CC2)cc1 [MLS000073677-01]	7.5	–
Cc1nn(C(=N)S)c(O)c1C(c1ccccc1)C(C#N)C#N (stereo not shown) [MLS000077118-01]	6.68	–
COc1ccc(N2CCN(C(c3cc4ccc(C)cc4nc3O)c3nnnn3C3CCCC3)CC2)cc1 (stereo not shown) [MLS000077379-01]	6.68	–
COc1ccccc1N1CCN(C(c2cc3ccc(C)cc3nc2O)c2nnnn2C2CCCC2)CC1 (stereo not shown) [MLS000077380-01]	7.5	–
CCN(CC)CCNC(O)=C1C(=O)c2cccc3c2N(CCC3)C1=O [MLS000078957-01]	10.6	–

Structure (SMILES)	AC50 (read-out: AC50) [µM]	AC50 [µM]
CC1(c2ccccc2)CC(c2ccccc2)=Nc2nonc2N1 (stereo not shown) [MLS000079110-01]	5.31	–
CCOC(=O)C1=Nc2ccccc2C1=[N+]=[N-] [MLS000079382-01]	4.22	–
CNc1cc(C)nc(-n2nc(C)cc2C)n1 [MLS000079642-01]	8.41	–
Cc1nn2c3c(cnc2c1-c1ccccc1)C(=O)CC(c1ccco1)C3 (stereo not shown) [MLS000080714-01]	9.44	–
Cc1ccccc1-n1c(=C(C#N)C(=O)Nc2ccccc2)sc(=Cc2ccco2)c1=O [MLS000081502-01]	5.31	–
O=C(Nc1cccnc1)c1cn(-c2ccccc2)nc1-c1cccs1 [MLS000081870-01]	2.37	–
Cc1nn(-c2ccccc2)c2c1C(O)n1c(nc3ccccc31)S2 (stereo not shown) [MLS000081954-01]	5.31	–
C=C(C)COc1ccc(-c2n[nH]cc2Oc2ccccc2OCC)c(O)c1 [MLS000083085-01]	2.99	–
COc1ccc(OC)c(NC(=O)c2cc(-c3cc(Cl)ccc3O)n[nH]2)c1 [MLS000083936-01]	4.73	–
O=c1c2ccccc2sc2nc(C3CCCCC3)n(Cc3ccco3)c(=O)c12 [MLS000084065-01]	7.5	–
Cc1ccc(O)c(CN2CCN(c3ccccc3)CC2)c1 [MLS000084753-01]	2.99	–
CC(=O)N1CCc2cc(Br)cc(S(=O)(=O)N3CCCCCC3)c21 [MLS000086258-01]	5.31	–
Cn1cc(C(=O)NCCN2CCN(c3cccc(Cl)c3)CC2)c2c3ccccc3n(C)c2c1=O [MLS000086993-01]	4.73	–
Cc1cc(NC(=O)c2cc(-c3ccco3)on2)nn1Cc1ccc(Cl)cc1 [MLS000087231-01]	8.41	–
O=C(Nc1ccccc1C(F)(F)F)c1cc(-c2ccccc2O)on1 [MLS000087293-01]	2.99	–
Cc1cc(C(=O)Nc2cnn(Cc3ccc(Cl)cc3Cl)c2)no1 [MLS000087313-01]	9.44	–
CC(C)c1cc(C(=O)Nc2cc(Cl)ccc2O)no1 [MLS000087324-01]	6.68	–
Cc1occc1C(=O)N1CCN(C(c2ccccc2)c2ccccc2)CC1 [MLS000089076-01]	10.6	–
CCOc1cc(C2CC(=O)NC3=C2C(=O)C(C(=O)OC)C(C)C3)cc(Br)c1O (stereo not shown) [MLS000090952-01]	6.68	–
Cc1cc(NC(=O)CSc2ccc3nnc(-c4cccc(F)c4)n3n2)no1 [MLS000093339-01]	5.96	–
CC(C)N1CC=C(c2c[nH]c3ccccc23)CC1 [MLS000093714-01]	10.6	–
Cc1ccc(CSC2=Nc3ccccc3C3=NC(CC(=O)NCc4ccco4)C(=O)N23)cc1 (stereo not shown) [MLS000094891-01]	6.68	–

Structure (SMILES)	AC50 (read-out: AC50) [µM]	AC50 [µM]
CCNc1nc(NCc2ccccc2)nc(Oc2ccc(=O)[nH]n2)n1 [MLS000097254-01]	2.11	–
OC(CNCC(c1ccco1)N1CCCCC1)c1ccccc1 (stereo not shown) [MLS000097545-01]	5.96	–
CCCOC(=O)c1ccc(-c2c(C)noc2-c2ccc(OC)cc2O)o1 [MLS000097856-01]	1.88	–
Cc1nc2sc(C(c3ccco3)N3CCN(C(c4ccccc4)c4ccccc4)CC3)c(O)n2n1 (stereo not shown) [MLS000101802-01]	5.96	–
Cc1cccc(N2CCN(c3cccc(C)c3)C2c2cccnc2)c1 [MLS000105583-01]	5.96	–
Oc1ccc(Br)cc1CN1CCN(c2ccccc2)CC1 [MLS000106609-01]	2.11	–
CCN(CC)CC(O)COc1ccccc1C(=O)CCc1ccccc1 (stereo not shown) [MLS000107538-01]	1.5	–
N=c1c2c(n(Cc3ccc(F)cc3)c3c1CCC3)CCC2 [MLS000107591-01]	3.35	–
N#Cc1c2c(c(NCc3ccco3)n3c1nc1ccccc13)CCC2 [MLS000109113-01]	2.37	–
CCCCOc1ccc(NC2=NC(N)=NC3(CCCCC3)N2)cc1 [MLS000109806-01]	8.41	–
Cc1cc(N2CCC(C)CC2)nc(-n2nc(C)cc2C)n1 [MLS000109839-01]	2.99	–
CCOC(=O)c1ccccc1NC(=O)C(C)Oc1ccccc1 (stereo not shown) [MLS000109889-01]	10.6	–
CCOC(=O)c1[nH]c(Cc2[nH]c(C(=O)OCC)c(C)c2CCC(=O)OC)c(CCC(=O)OC)c1C [MLS000111116-01]	5.31	–
CC1=CC(C)(C)Nc2ccc(OC(=O)c3cccnc3)cc21 [MLS000111190-01]	13.3	–
CCn1c(N2CCC(C)CC2)nc2c1c(=O)n(C)c(=O)n2C [MLS000115844-01]	5.96	–
Cc1cc(Nc2ccc(C(C)C)cc2)n2ncnc2n1 [MLS000116597-01]	4.22	–
COc1ccc(Nc2cc(C)nc3nc(C)nn23)cc1Cl [MLS000116613-01]	16.8	–
Cc1cc(Nc2ccc(C)c(C)c2)n2nc(C)nc2n1 [MLS000116616-01]	4.73	–
Cc1cc(Nc2ccc(Br)cc2)n2nc(C)nc2n1 [MLS000116653-01]	7.5	–
Cc1cc(NCc2ccco2)nc2cc(O)ccc12 [MLS000118315-01]	6.68	–
O=C(NC1CC1)c1ccc(CSCc2cccc(F)c2)o1 [MLS000120194-01]	8.41	–
COc1ccc(N(CC(=O)NCc2ccccc2)C(=O)CCC(=O)Nc2cc(C)ccn2)c(OC)c1 [MLS000121471-01]	10.6	–
